No end group written: not given here. *: point of attachment. 5FAM = O=C1OC2(c3ccc(O)cc3Oc3cc(O)ccc32)c2ccc(C(=O)*)cc21
Tests used:
[1] = system: serum antibodies to equine infectious anemia virus; assay: Fluorescence polarization (FP) assay of fluorescein-labeled peptides with diluted horse serum; type: binding; details: for FP signal of R51 with positive sera: approx. 2 nM peptide, 1:100 serum, 50 mM sodium phosphate pH 6.8, 20 min, 5CF vs 6CF label; for FP interaction with EIAV-positive sera: EIAV-positive sera incl. R51 FP-nonreactive samples; for FP reactivity with experimentally infected serum: Pony 95 serum
Method: Several different buffer compositions and detergents were therefore tested for compatibility with horse serum. When horse serum was diluted 1:50 or 1:100 into 20-50 mM sodium phosphate without NaCl, this problem was virtually eliminated. […] Under the low-salt conditions, the polarization of peptide R51-5CF increased from 50 mP to over 200 mP with a 1:100 dilution of a strong positive EIAV antiserum from an experimental infection (Pony 95). Thus it was determined that the optimal buffer composition for the FP assay was 50 mM sodium phosphate, pH 6.8-7.0.
(§1) Fluorescence Polarization (FP) Measurements. The fluorescein-labeled peptides were evaluated for their suitability as probes for FP using an FPM-1 Fluorescence Polarization Analyzer (Jolley Consulting and Research, Grayslake, Ill.) batch mode with the following settings: PMT gain 80, heater off, single read. Serum was diluted 1:100 or 1:50 into 2 mL of buffer in 12×75 mm borosilicate glass tubes (VWR). After reading the blank, fluorescently labeled peptide was added to a final concentration of 1-2 nM (100K-200K total intensity) and incubated for at least 15 minutes. The FP of the sample was measured and expressed as millipolarization units (mP). Some of the sera were very dark, presumably due to hemolysis. If such a serum sample had low lamp feedback (<0.63), a two-fold further dilution was tested. Polarization data was output to a computer running the FPM-1 data collection software, then converted to an ASCII text file and imported into the Quattro Pro spreadsheet program (Corel, Ottawa, Ontario) for data analysis and graphing.
Because different fluorescein linkages can result in differences in sensitivity in the FP assay, R51 peptide was labeled with 6-carboxyfluorescein so the difference between the two labels could be ascertained. […] Peptides (approx. 2 nM) were incubated with a 1:100 dilution of serum in 50 mM sodium phosphate, pH 6.8, for 20 minutes. The results are shown in FIG. 2, in order of decreasing peptide length. In FIG. 2, black bars show the results for experimentally-infected (pony 95), hatched bars for field infected ([…]), gray bars for uninfected (Petite), and white bars for no serum added. […] As the R51-6CF probe was the most sensitive to the positive sera tested, 6-carboxyfluorescein is the preferred fluorophore. However, other fluorophores, such as rhodamine, BODIPY™ M, Texas Red™ and Lucifer yellow, could also be used. For a detailed listing of a variety of commercially available fluorophores, see Handbook of Fluorescent Probes and Research Chemicals, ed. Karen Larison, by Richard P. Haughland, Ph.D., 5th ed., 1992, published by Molecular Probes, Inc.

[2] = system: anti-EIAV antibodies in horse sera; assay: Anti-fluorescein capture ELISA; type: binding; details: for ELISA reactivity with FP-nonreactive sera: sera 1:50, FP-nonreactors from Texas; for ELISA reactivity: Pony 95 and Lady sera; for reactivity in the anti-fluorescein ELISA: general statement of Example 3
Method: Anti-Fluorescein Capture ELISA. In order to measure antibody binding to test peptides without regard to their suitability for FP, an anti-fluorescein capture ELISA was used. To each well of an Immulon 2 HB 96-well plate (Dynex, Chantilly, Va.) was added 50 μL rabbit anti-fluorescein antibody (Molecular Probes), 3.5 μg/ml in 50 mM sodium bicarbonate, pH 9.6; the plates were sealed and incubated overnight. The wells were blocked with Blotto (5% nonfat dry milk, 5% normal bovine serum, 0.025% Tween 20 in PBS (PBST). The plates were then incubated with test horse sera, diluted 1:100 in Blotto, for 1 h at RT, washed as above, then incubated with anti-horse IgG(Fc)-HRP (United States Biochemical), diluted 1:10^5 in Blotto, for 1 h at RT and washed. The substrate, TM Blue Soluble reagent (200 μL/well; Intergen, Milford, Mass.) was added and incubated for 20 minutes with shaking, and the reaction stopped with the addition of 50 μL/well 1.0 N H2SO4 for 5 minutes with shaking. Absorbance at 450 nm was measured on a Dynex MR5000 microplate reader. Because each peptide caused a slightly different background absorbance, control wells containing no horse serum were included for each peptide tested.
Some of the sera from Missouri (4/10) could not be tested due to interference from a high level of hemolysis, resulting in low lamp feedback values. […] In order to confirm the serological status of FP-unreactive sera, they were tested in a western blot (data not shown) as well as in the antifluorescein-capture ELISA using the seven original peptides derived from the three major antigens mentioned above (FIG. 5). Sera (1:50 dilution) were tested for reactivity to four EIAV-derived, fluorescein-labeled peptides in an ELISA format as described in the methods. NHS, normal (uninfected) horse serum; Tx43 through Txll7, FP-nonreactive, Tx47 through pony 95, FP-reactive sera. Black bars, peptide R51F; hatched bars, R32; gray bars, pepl2; white bars, Sam50.

[3] = Behaviour of the R51 probe in solution (cyclization, dilution); type: physicochemical
Method: Because R51 contains two Cys residues that may form a loop in the native protein, the differences in reactivity were assessed between linear or cyclized peptide (cyclic by virtue of an intramolecular disulfide bond).

[4] = system: anti-EIAV IgG; assay: Fluorescence polarization of probe peptides with purified IgG from field-infected horse (Lady); type: binding; details: for change in FP with purified antibodies from field-infected animal: Lady IgG
Method: Due to problems encountered with testing horse serum, the initial evaluation made use of purified IgG from a reference long-term, field-infected horse (Lady). Purified IgG from field infected horse serum (100 μg/ml) was incubated with the candidate probe peptides (2 nM) in PBS for 20 min. The results are shown in FIG. 1, wherein black bars indicate probe added to IgG and gray bars indicate probe in buffer alone. All peptides were the 5-carboxyfluorescein derivatives. […] The other peptides in the panel had only slight changes in polarization in the presence of Lady IgG.
as §1

In the case of “R51-6CF: R51 peptide (SEQ ID NO 1) labeled with 6-carboxyfluorescein (IGCIERTHVFCHTG; cysteine pairing not given here; also: 6-carboxyfluorescein label, position not given here)”, the “polarization values of negative serum samples” value ([1]; 110 AGID-negative sera, 1:100 dilution) is reported as 73.6±3.0 mP, the “FP signal of R51 with positive sera” value [1] is reported as > 300 mP and the “average mP value with field-infected sera” value ([1]; measurable sera of 153 field-infected animals, 1:100 dilution, ~2 nM peptide) is reported as 150±55 mP.

With “APLVAPPQGPIPMT (Equine infectious anemia virus) [Sam50A]” the “FP interaction with EIAV-positive sera” value [1] was “none of these analogs displayed a measurable interaction”.

With “IGCIERTHVFCHTG (Equine infectious anemia virus) [R51]” the “sensitivity of cyclized vs linear peptide” value ([1]; cyclic by intramolecular disulfide bond, field isolates) was “more sensitive to field isolates than the linear form”, the “ELISA reactivity with FP-nonreactive sera” value [2] was “no measurable antibody” and the precipitation of probe ([3]; conditions that allow cyclization) was “prone to precipitation”. The stability of peptide ([3]; upon dilution) was “stable upon dilution”.

For “HPLPNAPLVAPPQGPIPMT (Equine infectious anemia virus) [Sam50H]”, the “FP interaction with EIAV-positive sera” value [1] was “none of these analogs displayed a measurable interaction”.

With “KERQQVEETFNLI (Equine infectious anemia virus) [R32]” the “change in FP with purified antibodies from field-infected animal” value [4] was “did not exhibit an increase in FP”, the “FP reactivity with experimentally infected serum” value [1] was “some reactivity” and the ELISA reactivity [2] was “reacted very strongly”. For the same substance, the “reactivity in the anti-fluorescein ELISA” value [2] was “strong and broad reactivity” and the “ELISA reactivity with FP-nonreactive sera” value [2] was “no measurable antibody”.

For “ADDWDNRHPLPNAPLVAPPQGPIPMT (Equine infectious anemia virus) [Sam50]”, the “FP interaction with EIAV-positive sera” value [1] was “insensitive to EIAV-positive sera”.

With “QQVEETFNLI (Equine infectious anemia virus) [R32QQ]” the “maximum FP” value ([1]; 1:100 dilution of pony 95, R32 length series, fluorescein-6-isothiocyanate label) was > 200 mP and the “FP reactivity with experimentally infected serum” value [1] was “most sensitive peptide”.

In the case of “R51-5CF: R51 peptide labeled at the N-terminus with 5-carboxyfluorescein (5FAM-IGCIERTHVFCHTG; cysteine pairing not given here)”, the free-peptide polarization level ([4]; probe 2 nM in PBS buffer alone, 5-carboxyfluorescein derivative) is reported as “about 60 mP”, the “FP in the presence of Lady IgG” value ([4]; probe 2 nM, 60-100 μg/ml Lady IgG in PBS, 20 min) is reported as “around 140 MP” and the “FP signal of R51 with positive sera” value [1] is reported as 220 mP. For the same substance, the “FP reactivity with field-infected horse serum” value ([1]; field infected horses (Lady)) was “sensitive to serum from field infected horses”, the “polarization with strong positive EIAV antiserum” value ([1]; low-salt conditions, 1:100 dilution, experimental infection (Pony 95)) was “over 200 mP” and the “polarization of peptide before serum” value ([1]; low-salt conditions, starting value) was 50 mP.

With “LETWKLVKTSGVTPLPISSEANTGL (Equine infectious anemia virus) [Peptide 12]” the “change in FP with purified antibodies from field-infected animal” value [4] was “did not exhibit an increase in FP”, the “FP reactivity with experimentally infected serum” value [1] was “some reactivity” and the ELISA reactivity [2] was “reacted very strongly”. The “reactivity in the anti-fluorescein ELISA” value [2] was “strong and broad reactivity” and the “ELISA reactivity with FP-nonreactive sera” value [2] was “bind only weakly”.
